Experimental data as given in US8802597B2, “Herbicidal pyrimidines” (E I du Pont de Nemours and Company, priority 2003, dated 2014).
Where two headings read alike, the source gives them in different places.

Tests used:
Experiment in all cases: Test A pre/postemergence
Assay type in all cases: in vivo
[1] = test system: morningglory (Ipomoea spp.); details: for pest or weed control at 125 g/ha / pest or weed control at 500 g/ha: Ipomoea, 240 h, read-out: Plant response rating, Morningglory
Procedure, shortened: (§1)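 Compared with untreated controls, treated plants were visually rated for injury on a 0 (none) to 100 (complete control) scale about ten days after spraying. Pre- and postemergence applications used one solvent/surfactant formulation; postemergence plants measured 2–10 cm.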

[2] = test system: crabgrass (Digitaria sanguinalis); details: for pest or weed control at 125 g/ha / pest or weed control at 500 g/ha: Digitaria sanguinalis, 240 h, read-out: Plant response rating, Crabgrass
Procedure, shortened: as §1

[3] = test system: redroot pigweed (Amaranthus retroflexus); details: for pest or weed control at 125 g/ha / pest or weed control at 500 g/ha: Amaranthus retroflexus, 240 h, read-out: Plant response rating, Pigweed
Procedure, shortened: as §1

[4] = test system: velvetleaf (Abutilon theophrasti); details: for pest or weed control at 125 g/ha / pest or weed control at 500 g/ha: Abutilon theophrasti, 240 h, read-out: Plant response rating, Velvetleaf
Procedure, shortened: as §1

[5] = test system: barnyardgrass (Echinochloa crus-galli); details: for pest or weed control at 125 g/ha / pest or weed control at 500 g/ha: Echinochloa crus-galli, 240 h, read-out: Plant response rating, Barnyardgrass
Procedure, shortened: as §1

[6] = test system: giant foxtail (Setaria faberi); details: for pest or weed control at 125 g/ha / pest or weed control at 500 g/ha: Setaria faberi, 240 h, read-out: Plant response rating, Foxtail, Giant
Procedure, shortened: as §1

[7] = post-emergence, Postemergence, 125 g ai/ha, 0 to 100 scale (0 no effect, 100 complete control)
[8] = post-emergence, Postemergence, 500 g ai/ha, 0 to 100 scale (0 no effect, 100 complete control)
[9] = pre-emergence, Preemergence, 125 g ai/ha, 0 to 100 scale where 0 is no effect and 100 is complete control, approximately ten days
[10] = pre-emergence, Preemergence, 500 g ai/ha, 0 to 100 scale where 0 is no effect and 100 is complete control, approximately ten days
[11] = Postemergence, 125 g ai/ha, 0 to 100 scale (0 no effect, 100 complete control)
[12] = Postemergence, 500 g ai/ha, 0 to 100 scale (0 no effect, 100 complete control)
[13] = Preemergence, 125 g ai/ha, 0 to 100 scale where 0 is no effect and 100 is complete control, approximately ten days
[14] = Preemergence, 500 g ai/ha, 0 to 100 scale where 0 is no effect and 100 is complete control, approximately ten days
[15] = Postemergence, 2000 g ai/ha, 0 to 100 scale (0 no effect, 100 complete control)
[16] = Preemergence, 2000 g ai/ha, 0 to 100 scale (0 no effect, 100 complete control)

NC(=O)c1nc(C2CC2)nc(N)c1Br [Compound 20]
pest or weed control at 125 g/ha [1, 7]: 20% | pest or weed control at 500 g/ha [1, 8]: 40% | pest or weed control at 125 g/ha [1, 9]: 10% | pest or weed control at 500 g/ha [1, 10]: 60% | pest or weed control at 125 g/ha [2, 7]: 0% | pest or weed control at 500 g/ha [2, 8]: 0% | pest or weed control at 125 g/ha [2, 9]: 0% | pest or weed control at 500 g/ha [2, 10]: 0% | pest or weed control at 125 g/ha [3, 7]: 40% | pest or weed control at 500 g/ha [3, 8]: 60% | pest or weed control at 125 g/ha [3, 9]: 40% | pest or weed control at 500 g/ha [3, 10]: 70% | pest or weed control at 125 g/ha [4, 7]: 10% | pest or weed control at 500 g/ha [4, 8]: 55% | pest or weed control at 125 g/ha [4, 9]: 0% | pest or weed control at 500 g/ha [4, 10]: 70% | pest or weed control at 125 g/ha [5, 7]: 0% | pest or weed control at 500 g/ha [5, 8]: 0% | pest or weed control at 125 g/ha [5, 9]: 0% | pest or weed control at 500 g/ha [5, 10]: 0% | pest or weed control at 125 g/ha [6, 7]: 0% | pest or weed control at 500 g/ha [6, 8]: 0% | pest or weed control at 125 g/ha [6, 9]: 0% | pest or weed control at 500 g/ha [6, 10]: 0%

CS(=O)(=O)NC(=O)c1nc(-c2ccc(Cl)cc2)nc(N)c1Cl [Compound 131]
Plant response rating, Morningglory [1, 11]: 0 | Plant response rating, Morningglory [1, 12]: 20 | Plant response rating, Morningglory [1, 13]: 0 | Plant response rating, Morningglory [1, 14]: 0 | Plant response rating, Crabgrass [2, 11]: 10 | Plant response rating, Crabgrass [2, 12]: 30 | Plant response rating, Crabgrass [2, 13]: 0 | Plant response rating, Crabgrass [2, 14]: 0 | Plant response rating, Pigweed [3, 11]: 50 | Plant response rating, Pigweed [3, 12]: 70 | Plant response rating, Pigweed [3, 13]: 0 | Plant response rating, Pigweed [3, 14]: 0 | Plant response rating, Velvetleaf [4, 11]: 35 | Plant response rating, Velvetleaf [4, 12]: 60 | Plant response rating, Velvetleaf [4, 13]: 0 | Plant response rating, Velvetleaf [4, 14]: 0 | Plant response rating, Barnyardgrass [5, 11]: 10 | Plant response rating, Barnyardgrass [5, 12]: 20 | Plant response rating, Barnyardgrass [5, 13]: 0 | Plant response rating, Barnyardgrass [5, 14]: 0 | Plant response rating, Foxtail, Giant [6, 11]: 15 | Plant response rating, Foxtail, Giant [6, 12]: 30 | Plant response rating, Foxtail, Giant [6, 13]: 0 | Plant response rating, Foxtail, Giant [6, 14]: 0

CCOC(=O)C(O)c1nc(C2CC2)nc(N)c1Br (stereo not drawn) [Compound 57]
Plant response rating, Morningglory [1, 12]: 70 | Plant response rating, Morningglory [1, 15]: 80 | Plant response rating, Morningglory [1, 14]: 100 | Plant response rating, Morningglory [1, 16]: 100 | Plant response rating, Crabgrass [2, 12]: 10 | Plant response rating, Crabgrass [2, 15]: 30 | Plant response rating, Crabgrass [2, 14]: 10 | Plant response rating, Crabgrass [2, 16]: 70 | Plant response rating, Pigweed [3, 12]: 75 | Plant response rating, Pigweed [3, 15]: 95 | Plant response rating, Pigweed [3, 14]: 90 | Plant response rating, Pigweed [3, 16]: 100 | Plant response rating, Velvetleaf [4, 12]: 50 | Plant response rating, Velvetleaf [4, 15]: 80 | Plant response rating, Velvetleaf [4, 14]: 80 | Plant response rating, Velvetleaf [4, 16]: 95 | Plant response rating, Barnyardgrass [5, 12]: 25 | Plant response rating, Barnyardgrass [5, 15]: 75 | Plant response rating, Barnyardgrass [5, 14]: 25 | Plant response rating, Barnyardgrass [5, 16]: 80 | Plant response rating, Foxtail, Giant [6, 12]: 60 | Plant response rating, Foxtail, Giant [6, 15]: 80 | Plant response rating, Foxtail, Giant [6, 14]: 10 | Plant response rating, Foxtail, Giant [6, 16]: 70

Nc1nc(-c2ccc(F)cc2)nc(C(=O)O)c1Cl [Compound 90]
Plant response rating, Morningglory [1, 11]: 20 | Plant response rating, Morningglory [1, 12]: 65 | Plant response rating, Morningglory [1, 13]: 0 | Plant response rating, Morningglory [1, 14]: 25 | Plant response rating, Crabgrass [2, 11]: 0 | Plant response rating, Crabgrass [2, 12]: 20 | Plant response rating, Crabgrass [2, 13]: 10 | Plant response rating, Crabgrass [2, 14]: 50 | Plant response rating, Pigweed [3, 11]: 35 | Plant response rating, Pigweed [3, 12]: 90 | Plant response rating, Pigweed [3, 13]: 70 | Plant response rating, Pigweed [3, 14]: 80 | Plant response rating, Velvetleaf [4, 11]: 65 | Plant response rating, Velvetleaf [4, 12]: 85 | Plant response rating, Velvetleaf [4, 13]: 10 | Plant response rating, Velvetleaf [4, 14]: 45 | Plant response rating, Barnyardgrass [5, 11]: 0 | Plant response rating, Barnyardgrass [5, 12]: 10 | Plant response rating, Barnyardgrass [5, 13]: 0 | Plant response rating, Barnyardgrass [5, 14]: 35 | Plant response rating, Foxtail, Giant [6, 11]: 0 | Plant response rating, Foxtail, Giant [6, 12]: 30 | Plant response rating, Foxtail, Giant [6, 13]: 0 | Plant response rating, Foxtail, Giant [6, 14]: 15
